What was measured:
Cannabinoid receptor 2 = Cannabinoid receptor 2 (Homo sapiens, UniProt P34972)
Cannabinoid receptor 1 = Cannabinoid receptor 1 (Homo sapiens, UniProt P21554)
Cannabinoid receptor 1, sequence (P21554 whole entry): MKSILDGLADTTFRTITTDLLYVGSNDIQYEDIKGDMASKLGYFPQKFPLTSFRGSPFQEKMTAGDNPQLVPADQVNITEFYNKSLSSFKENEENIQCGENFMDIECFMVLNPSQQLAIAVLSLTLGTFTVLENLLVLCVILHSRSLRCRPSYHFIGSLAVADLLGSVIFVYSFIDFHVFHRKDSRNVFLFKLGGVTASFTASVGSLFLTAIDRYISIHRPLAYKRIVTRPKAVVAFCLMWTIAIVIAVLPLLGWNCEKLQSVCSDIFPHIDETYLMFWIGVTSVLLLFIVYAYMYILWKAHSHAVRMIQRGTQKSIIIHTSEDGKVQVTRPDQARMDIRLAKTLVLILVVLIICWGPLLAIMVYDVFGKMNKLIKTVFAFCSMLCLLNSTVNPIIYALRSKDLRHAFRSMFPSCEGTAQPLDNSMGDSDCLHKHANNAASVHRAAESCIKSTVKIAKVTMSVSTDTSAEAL

Cannabinoid receptor 2, sequence (P34972 whole entry): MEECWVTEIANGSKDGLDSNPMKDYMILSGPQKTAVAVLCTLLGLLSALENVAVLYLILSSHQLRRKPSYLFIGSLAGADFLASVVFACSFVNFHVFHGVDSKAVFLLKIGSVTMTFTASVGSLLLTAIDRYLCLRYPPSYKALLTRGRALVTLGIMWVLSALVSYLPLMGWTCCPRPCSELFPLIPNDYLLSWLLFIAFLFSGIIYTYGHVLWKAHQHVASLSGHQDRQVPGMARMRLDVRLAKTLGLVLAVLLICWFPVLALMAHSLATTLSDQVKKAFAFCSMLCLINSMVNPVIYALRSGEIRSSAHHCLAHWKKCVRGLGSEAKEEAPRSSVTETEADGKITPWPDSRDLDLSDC

CCc1c(C(=O)NN2CCCCC2)nn(-c2ccc(Cl)cc2Cl)c1-c1ccc(Br)cc1 [SR 147778]
Ki (Cannabinoid receptor 2): 442 nM
Ki (Cannabinoid receptor 1): 3.5 nM
